Measurements taken from PubChem BioAssay AID248 (DTP/NCI, 2004).
Where “and” joins values, the source holds several entries; their conditions need not be identical. Equal entries are not always repeated. Inconclusive results and toxic doses are left out. No stated cut-off is given here; in the data, active means T/C of 150% or more; inactive means T/C below 125%.

Tested on: L1210 leukemia ip in BDF1 mice, survival T/C
Experiment: NCI In Vivo Anticancer Drug Screen. Data for tumor model L1210 Leukemia (intraperitoneal) in B6D2F1 (BDF1) mice
Conditions: endpoint: mean survival time, higher = longer survival
Summary of the method: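 Read-out is survival time, reported as the treated-group measurement over the vehicle-control measurement.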

[1] = dose: 100.0 mg/kg/injection, schedule: Q01DX001 (ip), vehicle: carboxymethylcellulose (CMC)
[2] = dose: 200.0 mg/kg/injection, schedule: Q01DX001 (ip), vehicle: carboxymethylcellulose (CMC)
[3] = dose: 100.0 mg/kg/injection, schedule: Q04DX002 (ip), vehicle: saline with Tween-80
[4] = dose: 200.0 mg/kg/injection, schedule: Q04DX002 (ip), vehicle: saline with Tween-80
[5] = dose: 400.0 mg/kg/injection, schedule: Q04DX002 (ip), vehicle: saline with Tween-80
[6] = dose: 100.0 mg/kg/injection, schedule: Q01DX009 (ip), vehicle: Klucel (hydroxypropylcellulose) (HPC)

Measured: T/C

COc1cccc2cc[nH]c12
inactive: dose: 50.0 mg/kg/injection, schedule: Q01DX001 (ip), vehicle: carboxymethylcellulose (CMC) 105 % of control | [1] 100 % of control | [2] 112 % of control | dose: 400.0 mg/kg/injection, schedule: Q01DX001 (ip), vehicle: carboxymethylcellulose (CMC) 100 % of control

CCCCCSP(=S)(SCCCCC)c1ccccc1
inactive: [3] 99 % of control | [4] 105 % of control | [5] 99 % of control

CC(=O)Nc1ccc(N(CCO)CCO)cc1
inactive: dose: 25.6 mg/kg/injection, schedule: Q04DX002 (ip), vehicle: saline with Tween-80 88 % of control | dose: 64.0 mg/kg/injection, schedule: Q04DX002 (ip), vehicle: saline with Tween-80 88 % of control | dose: 160.0 mg/kg/injection, schedule: Q04DX002 (ip), vehicle: saline with Tween-80 88 % of control | [5] 92 % of control

CCOC(=O)CNC(=O)Oc1c(Cl)cccc1Cl
inactive: dose: 25.0 mg/kg/injection, schedule: Q01DX009 (ip), vehicle: Klucel (hydroxypropylcellulose) (HPC) 100 % of control | dose: 50.0 mg/kg/injection, schedule: Q01DX009 (ip), vehicle: Klucel (hydroxypropylcellulose) (HPC) 88 % of control | [6] 89 % of control

COc1ccc(OC)c(NC(=S)NC(=O)c2ccc(Cl)cc2Cl)c1
inactive: dose: 100.0 mg/kg/injection, schedule: Q01DX001 (ip), vehicle: saline with Tween-80 89 % of control | dose: 100.0 mg/kg/injection, schedule: Q01DX009 (ip), vehicle: saline with Tween-80 100 % of control and 102 % of control | [3] 93 % of control and 100 % of control | dose: 100.0 mg/kg/injection, schedule: Q04DX003 (ip), vehicle: saline with Tween-80 105 % of control | dose: 200.0 mg/kg/injection, schedule: Q01DX001 (ip), vehicle: saline with Tween-80 86 % of control | dose: 200.0 mg/kg/injection, schedule: Q01DX009 (ip), vehicle: saline with Tween-80 96 % of control and 99 % of control | [4] 106 % of control and 107 % of control | dose: 200.0 mg/kg/injection, schedule: Q04DX003 (ip), vehicle: saline with Tween-80 92 % of control | dose: 400.0 mg/kg/injection, schedule: Q01DX001 (ip), vehicle: saline with Tween-80 96 % of control | dose: 400.0 mg/kg/injection, schedule: Q01DX009 (ip), vehicle: saline with Tween-80 89 % of control | [5] 93 % of control | dose: 400.0 mg/kg/injection, schedule: Q04DX003 (ip), vehicle: saline with Tween-80 95 % of control

Cc1c(NC=O)c(=O)n(-c2ccccc2)n1C
inactive: [6] 92 % of control | dose: 100.0 mg/kg/injection, schedule: Q04DX003 (ip), vehicle: Klucel (hydroxypropylcellulose) (HPC) 107 % of control | dose: 200.0 mg/kg/injection, schedule: Q01DX009 (ip), vehicle: Klucel (hydroxypropylcellulose) (HPC) 93 % of control | dose: 200.0 mg/kg/injection, schedule: Q04DX003 (ip), vehicle: Klucel (hydroxypropylcellulose) (HPC) 100 % of control | dose: 400.0 mg/kg/injection, schedule: Q01DX009 (ip), vehicle: Klucel (hydroxypropylcellulose) (HPC) 100 % of control | dose: 400.0 mg/kg/injection, schedule: Q04DX003 (ip), vehicle: Klucel (hydroxypropylcellulose) (HPC) 105 % of control

O=C(O)c1cc([N+](=O)[O-])ccc1O
inactive: [1] 95 % of control | dose: 100.0 mg/kg/injection, schedule: Q04DX002 (ip), vehicle: saline 101 % of control | [2] 95 % of control | dose: 200.0 mg/kg/injection, schedule: Q04DX002 (ip), vehicle: saline 101 % of control | dose: 400.0 mg/kg/injection, schedule: Q04DX002 (ip), vehicle: saline 101 % of control

C1CN(CC2COC(CN3CCOCC3)CO2)CCO1 (centres undefined)
inactive: dose: 100.0 mg/kg/injection, schedule: Q04DX003 (ip), vehicle: saline 106 % of control | dose: 200.0 mg/kg/injection, schedule: Q04DX003 (ip), vehicle: saline 97 % of control | dose: 400.0 mg/kg/injection, schedule: Q04DX003 (ip), vehicle: saline 98 % of control

O=[N+]([O-])c1ccc(S(=O)Cc2ccccc2)c2c1no[n+]2[O-] (centres undefined)
inactive: dose: 25.0 mg/kg/injection, schedule: Q04DX003 (ip), vehicle: saline with Tween-80 100 % of control

C=C1CC[N+]2(CCCCCC)CCCC12 (centres undefined)
inactive: dose: 6.25 mg/kg/injection, schedule: Q01DX009 (ip), vehicle: saline 97 % of control | dose: 12.5 mg/kg/injection, schedule: Q01DX009 (ip), vehicle: saline 91 % of control | dose: 25.0 mg/kg/injection, schedule: Q01DX009 (ip), vehicle: saline 103 % of control
